Laboratory results as given in patent publication US20180099931A1 (AbbVie S.à.r.l., priority 2016, published 2018).
Like-named read-outs stand apart in the source and are kept apart here.

Target: T1, F508delCFTR (Homo sapiens, UniProt P13569, DEL508-508)
T1 construct: expressed in transfected cells; host or cells: CFBE41o- human lung-derived epithelial cells (CFBE4lo-F508delCFTR-HRP), doxycycline-inducible
Assay: Cell Surface Expression-Horse Radish Peroxidase (CSE-HRP) Assay;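 as to Maximum % activity (with co-corrector): co-corrector and positive control are both the same reference corrector at 2 µM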;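 as to Maximum % activity (without co-corrector): percent of the 2 µM on-plate positive control corrector response above DMSO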
Type: cell-based
Conditions: for Maximum % activity (with co-corrector): with co-corrector (2 μM); for Maximum % activity (with co-corrector) / Emax: maximum at any tested concentration, normalized to on-plate positive control; for Emax: without co-corrector, read-out: Maximum % activity (without co-corrector)

[1] = test compound without co-corrector, read-out: EC50 (without co-corrector)
[2] = with co-corrector (2 μM of 3-[(2R,4R)-4-({[1-(2,2-difluoro-1,3-benzodioxol-5-yl)cyclopropyl]carbonyl}amino)-7-methoxy-3,4-dihydro-2H-chromen-2-yl]benzoic acid), read-out: EC50 (with co-corrector)

T1 sequence (P13569 with tags, fused parts or gaps DEL508-508): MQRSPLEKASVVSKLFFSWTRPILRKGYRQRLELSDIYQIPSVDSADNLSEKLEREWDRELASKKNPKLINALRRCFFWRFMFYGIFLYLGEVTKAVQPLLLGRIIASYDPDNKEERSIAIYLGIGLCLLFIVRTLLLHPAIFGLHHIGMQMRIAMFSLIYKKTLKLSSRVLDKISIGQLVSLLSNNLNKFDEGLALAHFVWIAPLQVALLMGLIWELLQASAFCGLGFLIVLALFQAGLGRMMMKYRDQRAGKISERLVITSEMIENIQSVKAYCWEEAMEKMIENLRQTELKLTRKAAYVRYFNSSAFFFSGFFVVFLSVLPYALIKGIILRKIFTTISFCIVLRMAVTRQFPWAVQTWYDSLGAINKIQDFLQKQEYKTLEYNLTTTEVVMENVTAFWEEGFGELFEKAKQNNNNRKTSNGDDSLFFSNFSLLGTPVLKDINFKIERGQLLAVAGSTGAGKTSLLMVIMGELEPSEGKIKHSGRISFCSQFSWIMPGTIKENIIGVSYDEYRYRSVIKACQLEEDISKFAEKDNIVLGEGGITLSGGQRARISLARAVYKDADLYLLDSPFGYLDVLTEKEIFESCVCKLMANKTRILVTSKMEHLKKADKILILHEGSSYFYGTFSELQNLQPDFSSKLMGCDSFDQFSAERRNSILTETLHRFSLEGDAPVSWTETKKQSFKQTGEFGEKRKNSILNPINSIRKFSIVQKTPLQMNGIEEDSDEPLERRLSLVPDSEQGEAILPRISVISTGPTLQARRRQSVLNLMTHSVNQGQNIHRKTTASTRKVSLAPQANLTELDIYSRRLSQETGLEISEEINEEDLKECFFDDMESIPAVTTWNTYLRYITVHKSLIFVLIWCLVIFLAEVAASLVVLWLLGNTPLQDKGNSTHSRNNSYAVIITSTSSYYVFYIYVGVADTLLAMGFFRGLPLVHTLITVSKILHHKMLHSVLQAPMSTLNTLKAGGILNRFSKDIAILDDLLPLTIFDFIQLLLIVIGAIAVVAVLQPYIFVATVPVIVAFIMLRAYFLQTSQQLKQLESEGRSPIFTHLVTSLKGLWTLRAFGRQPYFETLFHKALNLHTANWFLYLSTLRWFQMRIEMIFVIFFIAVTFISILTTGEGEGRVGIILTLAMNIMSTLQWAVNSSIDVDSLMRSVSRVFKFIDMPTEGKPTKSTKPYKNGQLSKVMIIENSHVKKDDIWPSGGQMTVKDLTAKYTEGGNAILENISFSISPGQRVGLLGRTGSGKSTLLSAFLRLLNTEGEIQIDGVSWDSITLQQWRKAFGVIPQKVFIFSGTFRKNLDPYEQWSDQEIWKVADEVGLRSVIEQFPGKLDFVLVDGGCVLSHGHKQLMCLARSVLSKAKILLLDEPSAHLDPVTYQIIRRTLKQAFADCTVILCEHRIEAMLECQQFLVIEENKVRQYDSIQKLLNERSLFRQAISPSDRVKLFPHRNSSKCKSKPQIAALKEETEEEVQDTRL

SMILES | EC50 [1] [µM] | EC50 [2] [µM] | Maximum % activity (with co-corrector) | Emax [%]
COc1ncc(C(F)(F)F)cc1CN[C@H]1[C@H](C(C)(C)C)[C@@H](C(=O)O)N(C(=O)C2CCCCC2)[C@H]1c1ccccc1OC(F)F [Example 14, (2S,3S,4S,5S)-3-tert-butyl-1-(cyclohexanecarbonyl)-5-[2-(difluoromethoxy)phenyl]-4-({[2-methoxy-5-(trifluoromethyl)pyridin-3-yl]methyl}amino)pyrrolidine-2-carboxylic acid] | 1 to 10 | 1 to 10 | +++ (≥350) | < 100
COc1ccc(C(C)(C)C)cc1CN[C@H]1[C@H](C(C)(C)C)[C@@H](C(=O)O)N(S(=O)(=O)c2ccccc2)[C@H]1c1ccccc1 [Example 15, (2S,3S,4S,5S)-1-(benzenesulfonyl)-3-tert-butyl-4-{[(5-tert-butyl-2-methoxyphenyl)methyl]amino}-5-phenylpyrrolidine-2-carboxylic acid] | 1 to 10 | 1 to 10 | +++ (≥350) | 100 to 200
COc1ncc(C2CCC2)cc1CN[C@H]1[C@H](C(C)(C)C)[C@@H](C(=O)O)N(C(=O)C2CCCCC2)[C@H]1c1ccccc1 [Example 16, (2S,3S,4S,5S)-3-tert-butyl-4-{[(5-cyclobutyl-2-methoxypyridin-3-yl)methyl]amino}-1-(cyclohexanecarbonyl)-5-phenylpyrrolidine-2-carboxylic acid] | < 1 | < 1 | +++ (≥350) | > 200
COc1ccc(C(C)(C)C)cc1CN[C@H]1[C@H](C(C)(C)C)[C@@H](C(=O)O)N(C(=O)C2CCCCC2)[C@H]1c1cccnc1OC [Example 17, (2S,3S,4S,5S)-3-tert-butyl-4-{[(5-tert-butyl-2-methoxyphenyl)methyl]amino}-1-(cyclohexanecarbonyl)-5-(2-methoxypyridin-3-yl)pyrrolidine-2-carboxylic acid] | 1 to 10 | < 1 | +++ (≥350) | > 200
COc1ccc(C(C)(C)C)cc1CN[C@H]1[C@H](C(C)(C)C)[C@@H](C(=O)O)N(C(=O)[C@@H]2CCCCO2)[C@H]1c1cccnc1N(C)C [Example 18, (2S,3S,4S,5S)-3-tert-butyl-4-{[(5-tert-butyl-2-methoxyphenyl)methyl]amino}-5-[2-(dimethylamino)pyridin-3-yl]-1-[(2S)-oxane-2-carbonyl]pyrrolidine-2-carboxylic acid] | 1 to 10 | 1 to 10 | +++ (≥350) | > 200
COc1ccc(C(C)(C)C)cc1CN[C@H]1[C@H](C(C)(C)C)[C@@H](C(=O)O)N(C(=O)[C@H]2CCCCO2)[C@H]1c1cccnc1N(C)C [Example 19, (2S,3S,4S,5S)-3-tert-butyl-4-{[(5-tert-butyl-2-methoxyphenyl)methyl]amino}-5-[2-(dimethylamino)pyridin-3-yl]-1-[(2R)-oxane-2-carbonyl]pyrrolidine-2-carboxylic acid] | 1 to 10 | 1 to 10 | +++ (≥350) | > 200
COc1ccc(C(C)(C)C)cc1CN[C@H]1[C@H](C(C)(C)C)[C@@H](C(=O)O)N(C(=O)CC2CCCCO2)[C@H]1c1ccccc1 (stereo partly drawn) [Example 20, (2S,3S,4S,5S)-3-tert-butyl-4-{[(5-tert-butyl-2-methoxyphenyl)methyl]amino}-1-[(oxan-2-yl)acetyl]-5-phenylpyrrolidine-2-carboxylic acid] | 1 to 10 | 1 to 10 | +++ (≥350) | 100 to 200
COc1ncc(C(F)(F)F)cc1CN[C@H]1[C@H](C(C)(C)C)[C@@H](C(=O)O)N(C(=O)[C@@H]2CCCCO2)[C@H]1c1ccccc1 [Example 21, (2S,3S,4S,5S)-3-tert-butyl-4-({[2-methoxy-5-(trifluoromethyl)pyridin-3-yl]methyl}amino)-1-[(2S)-oxane-2-carbonyl]-5-phenylpyrrolidine-2-carboxylic acid] | 1 to 10 | 1 to 10 | +++ (≥350) | 100 to 200
COc1ncc(C(F)(F)F)cc1CN[C@H]1[C@H](C(C)(C)OC)[C@@H](C(=O)O)N(C(=O)C2CCCCC2)[C@H]1c1ccccc1 [Example 22, (2S,3S,4S,5S)-1-(cyclohexanecarbonyl)-3-(2-methoxypropan-2-yl)-4-({[2-methoxy-5-(trifluoromethyl)pyridin-3-yl]methyl}amino)-5-phenylpyrrolidine-2-carboxylic acid] | < 1 | < 1 | +++ (≥350) | 100 to 200
COc1ccc(C(C)(C)C)cc1CN[C@H]1[C@H](C(C)(C)C)[C@@H](C(=O)O)N(C(=O)C2CCCCC2)[C@H]1c1ccccc1F [Example 24, (2S,3S,4S,5S)-3-tert-butyl-4-{[(5-tert-butyl-2-methoxyphenyl)methyl]amino}-1-(cyclohexanecarbonyl)-5-(2-fluorophenyl)pyrrolidine-2-carboxylic acid] | < 1 | < 1 | +++ (≥350) | > 200
COc1ncc(-c2ccccc2)cc1CN[C@H]1[C@H](C(C)(C)C)[C@@H](C(=O)O)N(C(=O)C2CCCCC2)[C@H]1c1ccccc1 [Example 25, (2S,3S,4S,5S)-3-tert-butyl-1-(cyclohexanecarbonyl)-4-{[(2-methoxy-5-phenylpyridin-3-yl)methyl]amino}-5-phenylpyrrolidine-2-carboxylic acid] | < 1 | < 1 | +++ (≥350) | 100 to 200
COc1ncc(C(F)(F)F)cc1CN[C@H]1[C@H](C(C)(C)C)[C@@H](C(=O)O)N(C(=O)C2CCCCC2)[C@H]1c1ccc(F)cc1 [Example 26, (2S,3S,4S,5S)-3-tert-butyl-1-(cyclohexanecarbonyl)-5-(4-fluorophenyl)-4-({[2-methoxy-5-(trifluoromethyl)pyridin-3-yl]methyl}amino)pyrrolidine-2-carboxylic acid] | < 1 | < 1 | +++ (≥350) | 100 to 200
COc1ncc(C(C)(C)C)cc1CN[C@H]1[C@H](C(C)(C)C)[C@@H](C(=O)O)N(C(=O)C2CCCCC2)[C@H]1c1ccccc1 [Example 27, (2S,3S,4S,5S)-3-tert-butyl-4-{[(5-tert-butyl-2-methoxypyridin-3-yl)methyl]amino}-1-(cyclohexanecarbonyl)-5-phenylpyrrolidine-2-carboxylic acid] | 1 to 10 | 1 to 10 | +++ (≥350) | > 200
COc1nc(C(C)(C)C)ccc1CN[C@H]1[C@H](C(C)(C)C)[C@@H](C(=O)O)N(C(=O)C2CCCCC2)[C@H]1c1ccccc1 [Example 29, (2S,3S,4S,5S)-3-tert-butyl-4-{[(6-tert-butyl-2-methoxypyridin-3-yl)methyl]amino}-1-(cyclohexanecarbonyl)-5-phenylpyrrolidine-2-carboxylic acid] | < 1 | < 1 | +++ (≥350) | 100 to 200
COc1ccc(C(C)(C)C)cc1CN[C@H]1[C@H](C(C)(C)C)[C@@H](C(=O)O)N(C(=O)[C@H]2CCCC(F)(F)C2)[C@H]1c1ccccc1 [Example 30, (2S,3S,4S,5S)-3-tert-butyl-4-{[(5-tert-butyl-2-methoxyphenyl)methyl]amino}-1-[(1S)-3,3-difluorocyclohexane-1-carbonyl]-5-phenylpyrrolidine-2-carboxylic acid] | 1 to 10 | 1 to 10 | +++ (≥350) | > 200
COc1ccc(C(C)(C)C)cc1CN[C@H]1[C@H](C(C)(C)C)[C@@H](C(=O)O)N(C(=O)[C@@H]2CCCC(F)(F)C2)[C@H]1c1ccccc1 [Example 31, (2S,3S,4S,5S)-3-tert-butyl-4-{[(5-tert-butyl-2-methoxyphenyl)methyl]amino}-1-[(1R)-3,3-difluorocyclohexane-1-carbonyl]-5-phenylpyrrolidine-2-carboxylic acid] | < 1 | < 1 | +++ (≥350) | > 200
COc1ccc(C(C)(C)C)cc1CN[C@H]1[C@H](C(C)(C)C)[C@@H](C(=O)O)N(C(=O)[C@@H](Cc2ccccc2)OC)[C@H]1c1ccccc1 [Example 32, (2S,3S,4S,5S)-3-tert-butyl-4-{[(5-tert-butyl-2-methoxyphenyl)methyl]amino}-1-[(2R)-2-methoxy-3-phenylpropanoyl]-5-phenylpyrrolidine-2-carboxylic acid] | 1 to 10 | < 1 | +++ (≥350) | > 200
COc1ccc(C2(C(F)(F)F)CC2)cc1CN[C@H]1[C@H](C(C)(C)C)[C@@H](C(=O)O)N(C(=O)C2CCCCC2)[C@H]1c1ccccc1 [Example 33, (2S,3S,4S,5S)-3-tert-butyl-1-(cyclohexanecarbonyl)-4-[({2-methoxy-5-[1-(trifluoromethyl)cyclopropyl]phenyl}methyl)amino]-5-phenylpyrrolidine-2-carboxylic acid] | 1 to 10 | < 1 | +++ (≥350) | > 200
COc1ccc(C(C)(C)C)cc1CN[C@H]1[C@H](C(C)(C)C)[C@@H](C(=O)O)N(C(=O)[C@@H]2CCCO2)[C@H]1c1ccccc1 [Example 34, (2S,3S,4S,5S)-3-tert-butyl-4-{[(5-tert-butyl-2-methoxyphenyl)methyl]amino}-1-[(2S)-oxolane-2-carbonyl]-5-phenylpyrrolidine-2-carboxylic acid] | 1 to 10 | 1 to 10 | +++ (≥350) | > 200
